# Reference: patent US10626112B2, “Heterocyclic sulfonamide derivative and medicine comprising same” (EA PHARMA CO., LTD., priority 2014, dated 2020)
# Target: human TRPA1 (Homo sapiens (Human), UniProt O75762)
# Assay: Measurement of TRPA1 antagonist activity (1): intracellular calcium increase
# Format: cell-based
# Settings: 293T cells transfected with human TRPA1 expression plasmid; allylisothiocyanate 20 μM stimulation; intracellular calcium fluorescence; read-out: hTRPA1 IC50
# Excerpt: Measurement of TRPA1 Antagonist Activity (1)
# Human TRPA1 Expression Plasmid
# As cDNA encoding human TRPA1 (GenBank accession No. […]), a commercially available product was purchased (manufactured by Kazusa DNA Research Institute, clone No.: pFN21AB7348, item No.: FHC07217). Using this as a template, full-length human TRPA1 gene was amplified using the primer sequences shown below, by reaction using DNA polymerase (manufactured by Stratagene, trade name: PfuUltra High-Fidelity DNA Polymerase).
# A recognition site (underlined) of restriction enzyme HindIII was added to the 5′ side, and XbaI site (underlined) was added to the 3′ side, and GTT of the template sequence was changed to termination codon TAG (bold). The obtained double stranded DNA was enzyme-digested with HindIII and XbaI, and introduced into the multicloning site of expression plasmid pcDNA3.1/zeo(+) (manufactured by Invitrogen) to construct a human TRPA1 expression plasmid.
# Human embryonic kidney-derived 293T cells were cultured in Dulbecco's Modified Eagle Medium containing 10% fetal bovine serum, 10 unit penicillin, and 10 μg streptomycin, plated on a petri dish having a diameter of 10 cm at 3×10^6 cells, and cultured for 24 hr in a CO2 incubator. A reduced serum medium (manufactured by Invitrogen, trade name: OPTI-MEM, 600 μL), a gene transfer reagent (manufactured by Mirus Bio, trade name: Mirus TransIT-293, 18 μL), and human TRPA1 expression plasmid (6 μg) were mixed, the total amount of the mixture was added to the cells on the petri dish to allow for gene transfer. The cells were recovered about for 8 hr later, plated on a poly-D-lysine coated 384 well black/clear bottom plate at 12,000 cells/well, and cultured overnight.
# Measurement of Intracellular Calcium Increase
# The 384 well plate was recovered, and the medium was removed. A calcium-bonded fluorescent indicator (manufactured by Molecular Device, trade name: Calcium4 Assay Kit, 38 μL) dissolved in assay buffer (1×HBSS, 20 mM HEPES, pH 7.2) was added, and the cells were stained in a CO2 incubator for 1 hr. The cells were taken out at room temperature, stood for not less than 15 min, a test substance (10 μL) was added by a platereader FDSS7000 (Hamamatsu Photonics K.K.) equipped with a 384ch dispenser. After 10 min, allylisothiocyanate (12 μL) was further added at a final concentration of 20 μM, and changes in the relative fluorescence intensity after addition of allylisothiocyanate were measured for 5 min.
# Test Substance Preparation
# The test substance was dissolved in dimethyl sulfoxide and serially diluted with an assay buffer containing 0.1% bovine serum albumin (1×HBSS, 20 mM HEPES, pH 7.2) to a 4.8-fold concentration of the evaluation concentration. Allylisothiocyanate, which is a known TRPA1 activator, was dissolved in dimethyl sulfoxide to 100 mM, and further diluted 5-fold (100 μM) of the final concentration, like the test substance.
# Calculation of Antagonist Activity
# Under the test substance-free conditions, the maximum variation range of the fluorescence intensity before and after allylisothiocyanate stimulation was defined to be 100% activity rate, and the variation range before and after buffer stimulation was defined as 0% activity rate. The activity rate on addition of the test substance was determined, and the numerical value obtained by subtracting the activity rate from 100 was defined to be an inhibitory rate. IC50, which is the concentration of the test substance necessary for reaching the 50% inhibitory rate, was calculated from the sigmoid approximate curve by a spreadsheet software Excel-Fit.
# Chain of human TRPA1 (O75762 whole entry): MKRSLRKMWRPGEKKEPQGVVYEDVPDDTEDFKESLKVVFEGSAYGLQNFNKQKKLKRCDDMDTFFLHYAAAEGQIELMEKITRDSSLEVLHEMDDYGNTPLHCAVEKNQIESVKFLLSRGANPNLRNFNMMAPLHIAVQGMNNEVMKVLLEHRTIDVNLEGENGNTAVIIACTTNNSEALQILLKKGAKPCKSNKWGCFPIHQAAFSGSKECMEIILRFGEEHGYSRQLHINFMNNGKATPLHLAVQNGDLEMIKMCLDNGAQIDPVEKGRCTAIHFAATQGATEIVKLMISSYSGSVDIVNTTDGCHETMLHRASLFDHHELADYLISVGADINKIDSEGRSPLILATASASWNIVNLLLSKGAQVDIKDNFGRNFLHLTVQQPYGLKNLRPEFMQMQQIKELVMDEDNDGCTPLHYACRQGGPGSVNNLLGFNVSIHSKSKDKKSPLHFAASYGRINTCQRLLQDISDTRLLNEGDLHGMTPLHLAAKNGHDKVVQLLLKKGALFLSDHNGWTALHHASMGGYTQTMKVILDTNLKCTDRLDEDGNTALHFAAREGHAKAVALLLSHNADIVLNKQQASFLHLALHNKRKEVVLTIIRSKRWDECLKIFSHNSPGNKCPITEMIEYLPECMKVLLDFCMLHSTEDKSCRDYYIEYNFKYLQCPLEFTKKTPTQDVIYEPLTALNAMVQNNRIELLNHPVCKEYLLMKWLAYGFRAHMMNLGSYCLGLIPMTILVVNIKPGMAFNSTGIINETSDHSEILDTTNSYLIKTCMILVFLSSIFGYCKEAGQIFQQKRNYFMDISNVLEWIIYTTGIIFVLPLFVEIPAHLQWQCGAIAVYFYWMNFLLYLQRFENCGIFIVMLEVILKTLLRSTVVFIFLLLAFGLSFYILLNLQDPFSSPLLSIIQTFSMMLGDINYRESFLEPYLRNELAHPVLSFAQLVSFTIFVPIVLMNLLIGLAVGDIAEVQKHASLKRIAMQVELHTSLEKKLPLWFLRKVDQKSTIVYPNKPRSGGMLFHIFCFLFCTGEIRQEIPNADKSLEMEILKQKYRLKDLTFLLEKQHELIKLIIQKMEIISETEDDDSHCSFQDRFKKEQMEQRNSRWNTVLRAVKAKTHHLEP
row,Compound,IC50 [nM]
1,"Cc1ccc2oc(S(=O)(=O)N3CCC[C@H]3C(=O)NCc3cccc(-c4ccc(C(F)(F)F)nc4)c3)cc2c1 [Example 111, (2S)-1-(5-methylbenzofuran-2-yl)sulfonyl-N-[[3-[6-(trifluoromethyl)-3-pyridyl]phenyl]methyl]pyrrolidine-2-carboxamide]",130
2,"O=C(NCc1ccnc(-c2ccccc2)c1)[C@@H]1CCCN1S(=O)(=O)c1cc2ccccc2o1 [Example 112, (2S)-1-(benzofuran-2-ylsulfonyl)-N-[(2-phenyl-4-pyridyl)methyl]pyrrolidine-2-carboxamide]",270
3,O=C(NCc1cccc(OCc2ccnc(C(F)(F)F)c2)c1)[C@@H]1CCCN1S(=O)(=O)c1cc2ccccc2o1 [Example 7],5.4
4,O=C(NCc1ccc(F)c(-c2ccc(C(F)(F)F)cc2O)c1)[C@@H]1CCCN1S(=O)(=O)c1cc2ccccc2o1 [Example 308],360
5,"CN(C)c1cccc(COc2cccc(CNC(=O)[C@@H]3CCCN3S(=O)(=O)c3cc4cc(F)ccc4o3)c2)c1 [Example 12, (2S)-N-[[3-[[3-(dimethylamino)phenyl]methoxy]phenyl]-methyl]-1-(5-fluorobenzofuran-2-yl)sulfonyl-pyrrolidine-2-carboxamide]",8.1
6,"CN(C)c1ccc(COc2cccc(CNC(=O)[C@@H]3CCCN3S(=O)(=O)c3cc4cc(F)ccc4o3)c2)cn1 [Example 21, (2S)-N-[[3-[[6-(dimethylamino)-3-pyridyl]methoxy]phenyl]-methyl]-1-(5-fluorobenzofuran-2-yl)sulfonyl-pyrrolidine-2-carboxamide]",34
7,"O=C(NCc1ccnc(-c2cc(Cl)cs2)c1)[C@@H]1CCCN1S(=O)(=O)c1cc2ccccc2o1 [Example 277, (2S)-1-(benzofuran-2-ylsulfonyl)-N-[[2-(4-chloro-2-thienyl)-4-pyridyl]methyl]pyrrolidine-2-carboxamide]",89
8,"C[C@H](NS(=O)(=O)c1cc2cc(F)ccc2o1)C(=O)NCc1ccc(O)c(-c2ccc(C(F)(F)F)cn2)c1 [Example 252, (2S)-2-[(5-fluorobenzofuran-2-yl)sulfonylamino]-N-[[4-hydroxy-3-[5-(trifluoromethyl)-2-pyridyl]-phenyl]methyl]propanamide]",14
9,"O=C(NCc1cccc(-c2ccc(C(F)(F)F)cn2)c1)[C@@H]1CCCN1S(=O)(=O)c1cc2cc(F)ccc2o1 [Example 89, (2S)-1-(5-fluorobenzofuran-2-yl)sulfonyl-N-[[3-[5-(trifluoromethyl)-2-pyridyl]phenyl]methyl]pyrrolidine-2-carboxamide]",0.38
10,"O=C(NCc1ccnc(-c2cc(F)c(F)cc2O)c1)[C@@H]1CCCN1S(=O)(=O)c1cc2ccccc2o1 [Example 122, (2S)-1-(benzofuran-2-ylsulfonyl)-N-[[2-(4,5-difluoro-2-hydroxy-phenyl)-4-pyridyl]methyl]pyrrolidine-2-carboxamide]",170
11,"O=C(NCc1cccc(-c2ccccc2)c1)[C@@H]1CCCN1S(=O)(=O)c1cc2cc(F)ccc2o1 [Example 77, (2S)-1-(5-fluorobenzofuran-2-yl)sulfonyl-N-[(3-phenylphenyl)methyl]pyrrolidine-2-carboxamide]",15
12,"N#Cc1ccc(-c2cc(CNC(=O)[C@@H]3CCCN3S(=O)(=O)c3cc4ccccc4o3)ccn2)cc1F [Example 119, (2S)-1-(benzofuran-2-ylsulfonyl)-N-[[2-(4-cyano-3-fluoro-phenyl)-4-pyridyl]methyl]pyrrolidine-2-carboxamide]",12
13,"CN(C)C(=O)c1ccc(CNC(=O)[C@@H]2CCCN2S(=O)(=O)c2cc3ccccc3o2)cc1-c1ccc(C(F)(F)F)cc1 [Example 337, (2S)-1-(benzofuran-2-ylsulfonyl)-N-[[4-(dimethylcarbamoyl)-3-[4-(trifluoromethyl)phenyl]-phenyl]methyl]pyrrolidine-2-carboxamide]",22
14,"O=C(NCc1cccc(-c2ccc(C(F)(F)F)cn2)c1)[C@@H]1[C@@H](O)CCN1S(=O)(=O)c1cc2cc(F)ccc2o1 [Example 94, (2S,3S)-1-(5-fluorobenzofuran-2-yl)sulfonyl-3-hydroxy-N-[[3-[5-(trifluoromethyl)-2-pyridyl]phenyl]methyl]pyrrolidine-2-carboxamide]",11
15,"C[C@H](NS(=O)(=O)c1cc2ccccc2o1)C(=O)NCc1ccnc(-c2ccc(C(F)(F)F)cc2)c1 [Example 103, (2S)-2-(benzofuran-2-ylsulfonylamino)-N-[[2-[4-(trifluoromethyl)phenyl]-4-pyridyl]methyl]propanamide]",56
16,"O=C(NCc1cccc(OCc2ccc(C(F)(F)F)cc2)c1)[C@@H]1C[C@@H](O)CN1S(=O)(=O)c1cc2ccccc2o1 [Example 46, (2S,4R)-1-(benzofuran-2-ylsulfonyl)-4-hydroxy-N-[[3-[[4-(trifluoromethyl)phenyl]methoxy]-phenyl]methyl]pyrrolidine-2-carboxamide]",130
17,"C[C@H](NS(=O)(=O)c1cc2cc(F)ccc2o1)C(=O)NCc1cc(-c2cnc(C(F)(F)F)nc2)ncn1 [Example 248, (2S)-2-[(5-fluorobenzofuran-2-yl)sulfonylamino]-N-[[6-[2-(trifluoromethyl)pyrimidin-5-yl]pyrimidin-4-yl]methyl]propanamide]",20
18,"O=C(NCc1cc(-c2cnc(C(F)(F)F)cn2)ccn1)[C@@H]1CCCN1S(=O)(=O)c1cc2ccccc2o1 [Example 201, (2S)-1-(benzofuran-2-ylsulfonyl)-N-[[4-[5-(trifluoromethyl)pyrazin-2-yl]-2-pyridyl]methyl]pyrrolidine-2-carboxamide]",8.6
19,"CC[C@H](NS(=O)(=O)c1cc2cc(F)ccc2o1)C(=O)NCc1cc(-c2ccc(C(F)(F)F)cn2)ccn1 [Example 335, (2S)-2-[(5-fluorobenzofuran-2-yl)sulfonylamino]-N-[[4-[5-(trifluoromethyl)-2-pyridyl]-2-pyridyl]methyl]butaneamide]",54
20,"CN(C)c1nc(CNC(=O)[C@@H]2CCCN2S(=O)(=O)c2cc3ccccc3o2)cc(-c2ccc(C(F)(F)F)cc2)n1 [Example 312, (2S)-1-(benzofuran-2-ylsulfonyl)-N-[[2-(dimethylamino)-6-[4-(trifluoromethyl)phenyl]pyrimidin-4-yl]methyl]pyrrolidine-2-carboxamide]",5.3
21,"C[C@H](NS(=O)(=O)c1cc2cc(F)ccc2o1)C(=O)NCc1ccnc(-c2ccc(C(F)(F)F)cc2)c1 [Example 108, (2S)-2-[(5-fluorobenzofuran-2-yl)sulfonylamino]-N-[[2-[4-(trifluoromethyl)phenyl]-4-pyridyl]methyl]propanamide]",13
22,"N#Cc1ccc(-c2ccnc(CNC(=O)[C@@H]3CCCN3S(=O)(=O)c3cc4ccccc4o3)c2)cc1 [Example 281, (2S)-1-(benzofuran-2-ylsulfonyl)-N-[[4-(4-cyanophenyl)-2-pyridyl]methyl]pyrrolidine-2-carboxamide]",22
23,"O=C(NCc1cccc(OCc2ccnc(C(F)(F)F)c2)c1)[C@@H]1CCCN1S(=O)(=O)c1cc2cc(F)ccc2o1 [Example 16, (2S)-1-(5-fluorobenzofuran-2-yl)sulfonyl-N-[[3-[[2-(trifluoromethyl)-4-pyridyl]methoxy]phenyl]-methyl]pyrrolidine-2-carboxamide]",2.8
24,"O=C(NCc1cc(-c2ccc(C(F)(F)F)cn2)ccn1)[C@@H]1CC(F)(F)CN1S(=O)(=O)c1cc2cc(F)ccc2o1 [Example 229, (2S)-4,4-difluoro-1-(5-fluorobenzofuran-2-yl)sulfonyl-N-[[4-[5-(trifluoromethyl)-2-pyridyl]-2-pyridyl]methyl]pyrrolidine-2-carboxamide]",12
25,"N#Cc1ccc(COc2cccc(CNC(=O)[C@@H]3CCCN3S(=O)(=O)c3cc4cc(F)ccc4o3)c2)cc1 [Example 11, (2S)-N-[[3-[(4-cyanophenyl)methoxy]phenyl]methyl]-1-(5-fluorobenzofuran-2-yl)sulfonyl-pyrrolidine-2-carboxamide]",1
